{
  "source": "patent US20090075902A1",
  "about": "“INHIBITING THE SIGNS OF AGING BY INHIBITING NF-KAPPA B ACTIVATION” (priority 2007, published 2009)",
  "key": {"Ercc1^−/Δ mice [1]": {"tested_on": "Ercc1^−/Δ mice", "experiment": "Third series: double blinded twin study, 8K-NBD versus negative control 8K-mNBD", "assay_type": "in vivo, mouse", "protocol": "FIG. 12. Treatment schedule for third series of experiments; treatment with 8K-NBD or negative control 8k-mNBD.\nIn a third series of experiments, a different treatment regimen was used (FIG. 12) in which treatment with 8K-NBD or a negative control peptide, 8K-mNBD (having a mutated sequence, […] (SEQ ID NO:7)) was initiated earlier than the above regimens at approximately 5 weeks (8K-NBD or 8K-mNBD, 10 mg/kg) administered intraperitoneally three times per week). This was a double blinded twin study designed to eliminate genetic and environmental variables.\nFIG. 13 presents a table showing the phenotypic changes associated with aging in mice treated with 8k-NBD or negative control 8k-mNBD. The overall aging score was improved by 30 percent in 8K-NBD versus 8K-mNBD-treated mice, indicating a significant delay in the onset of age-related symptoms corresponding to over a decade in human life.\nFIG. 15A-D presents a comparison of levels of hepatocellular senescence, as measured by staining for p16 protein, in young and senescent wild-type mice as well as Ercc1^−/Δ mice treated with either 8K-NBD or negative control 8K-mNBD according to the regimen of FIG. 12 at the age of 18 weeks."}, "Ercc1^−/Δ mice [2]": {"tested_on": "Ercc1^−/Δ mice", "experiment": "Pilot study: chronic 8K-NBD treatment, onset and severity of progeroid symptoms", "assay_type": "in vivo, mouse", "protocol": "FIG. 6. Exposure paradigm for pilot study to determine the impact of 8K-NBD on quality of life in progeroid Ercc1^−/Δ mice. 8K-NBD was dissolved in 5% DMSO in PBS and injected intraperitoneally. A littermate Ercc1^−/Δ mouse was treated with an equal volume of vehicle only (PBS). The study was concluded at 19 wks when the mouse treated with vehicle only became profoundly ataxic and cachectic, requiring euthanization.\nStudies were performed to determine if inhibition of NF-κB activation ameliorates accelerated aging in Ercc1^−/Δ mice. An Ercc1^−/Δ mouse was chronically treated with 8K-NBD peptide as described in FIG. 6. The age at onset of numerous progeroid symptoms were recorded (Table II). Ataxia and priapism, both caused by neurodegeneration (Rolig and McKinnon, 2000), were delayed by 3 wks and 1.5 wks respectively in the mouse treated with 8K-NBD.\nMotor strength and coordination were measured weekly in the mice by testing their ability to cross a balance beam (FIG. 9A) and to remain suspended from a wire (FIG. 9B)."}, "Ercc1^−/Δ mice [3]": {"tested_on": "Ercc1^−/Δ mice", "experiment": "Second series: 8K-NBD in an older symptomatic mouse, liver and skeletal muscle histopathology", "assay_type": "in vivo", "protocol": "FIG. 10. Exposure paradigm for pilot study to determine the impact of 8K-NBD on histopathologic changes in progeroid Ercc1^−/Δ mice. 8K-NBD was dissolved in 5% DMSO in PBS and injected i.p.\nIn a second series of experiments, an older Ercc1^−/Δ mouse, which already had progeroid symptoms, was chronically exposed to 8K-NBD then euthanized at 20 wk of age to determine if 8K-NBD affected histopathologic changes associated with aging (FIG. 10). Liver and skeletal muscle (SKM) were dissected, fixed, sectioned and stained. Tissues were compared to age-matched untreated Ercc1^−/Δ. The liver of Ercc1^−/Δ mice display large polyploid nuclei (FIG. 11A, 10×) characteristic of senescent hepatocytes (Gupta, 2000). […] This is consistent with previous reports that in mouse models of numerous inflammatory myopathies, persistent NF-κB activity is associated with necrotic and regenerative changes (Monici et al., 2003)."}, "mice": {"tested_on": "mice", "conditions": "cited from earlier work"}, "Ercc^−/Δ mouse": {"tested_on": "Ercc^−/Δ mouse", "experiment": "Delayed onset of frailty in a mouse treated with Compound A", "assay_type": "in vivo", "conditions": "5 MG/KG of Compound A, n=1; oil control n=3", "protocol": "Delayed onset of frailty in an Ercc^−/Δ mouse treated with 5 MG/KG of Compound A"}, "NF-κB activation": {"tested_on": "NF-κB activation", "conditions": "(Wen 2006); cited from earlier work"}, "[4]": {"conditions": "8K-NBD 10 mg/kg i.p. chronically, versus sibling treated with vehicle only"}, "[5]": {"conditions": "8K-NBD versus vehicle-treated mouse"}},
  "data": [
    {"molecule": "KKKKKKKK-GG-TALDWSWLQTE (SEQ ID NO:2) (KKKKKKKKGGTALDWSWLQTE) [8K-NBD]", "values": [
      {"measurement": "Improvement of overall aging score", "setting": "Ercc1^−/Δ mice [1]; 8K-NBD versus 8K-mNBD, 10 mg/kg i.p. three times per week from approximately 5 weeks", "result": 30, "unit": "%"},
      {"measurement": "Hepatocellular senescence, p16 protein staining pattern", "setting": "Ercc1^−/Δ mice [1]; at the age of 18 weeks", "result": "more closely resembles that of a young, healthy mouse"},
      {"measurement": "Neurodegeneration, GFAP staining pattern", "setting": "Ercc1^−/Δ mice [1]; at the age of 18 weeks, relative to 8K-mNBD-treated animal", "result": "more closely resembles that of the young wild-type mouse"},
      {"measurement": "Delay of onset of ataxia", "setting": "Ercc1^−/Δ mice [2]; [4]", "result": 3, "unit": "wks"},
      {"measurement": "Delay of onset of priapism", "setting": "Ercc1^−/Δ mice [2]; [4]", "result": 1.5, "unit": "wks"},
      {"measurement": "Body weight maintenance", "setting": "Ercc1^−/Δ mice [2]; 8K-NBD versus untreated and vehicle-treated mice", "result": "maintained weight longer"},
      {"measurement": "Ambulation and general appearance", "setting": "Ercc1^−/Δ mice [2]; [5]", "result": "improved"},
      {"measurement": "Severity of dystonia, trembling and kyphosis", "setting": "Ercc1^−/Δ mice [2]; [5]", "result": "significantly reduced"},
      {"measurement": "Delay in onset of symptoms (cachexia, loss of muscle mass and vision)", "setting": "Ercc1^−/Δ mice [2]; 8K-NBD versus vehicle-treated sibling", "result": "≥ 3", "unit": "wk"},
      {"measurement": "Motor strength and coordination (balance beam, suspension from a wire)", "setting": "Ercc1^−/Δ mice [2]; tested weekly, versus untreated mice (n=7)", "result": "tended to perform better"},
      {"measurement": "Onset of cachexia, loss of muscle mass and vision", "setting": "Ercc1^−/Δ mice [2]; within the 19 wk period of the study, vehicle mouse showed them by 16 wks of age", "result": "did not arise"},
      {"measurement": "Skeletal muscle (SKM) pathology", "setting": "Ercc1^−/Δ mice [3]; at 20 wk of age, untreated Ercc1^−/Δ SKM showed necrosis", "result": "devoid of pathologic changes"},
      {"measurement": "Hepatocyte cytoplasm to nuclear ratio", "setting": "Ercc1^−/Δ mice [3]; liver at 20 wk of age, versus age-matched untreated Ercc1^−/Δ", "result": "much higher"},
      {"measurement": "Hepatic architecture", "setting": "Ercc1^−/Δ mice [3]; liver at 20 wk of age, suggestive of liver regeneration", "result": "effaced"}
    ]},
    {"molecule": "TALDWSWLQTE; SEQ ID NO:1 [NBD peptide]", "values": [
      {"measurement": "Toxicity on systemic administration", "setting": "mice", "result": "not toxic"}
    ]},
    {"molecule": "Cl.O=C1Nc2nc(-c3c(O)cccc3OCC3CC3)cc([C@@H]3CCCNC3)c2CO1", "note": "[Compound A]", "values": [
      {"measurement": "Ataxia (onset)", "setting": "Ercc^−/Δ mouse", "result": 19.3},
      {"measurement": "Dystonia (onset)", "setting": "Ercc^−/Δ mouse", "result": 13.7},
      {"measurement": "Kyphosis (onset)", "setting": "Ercc^−/Δ mouse", "result": 14.3},
      {"measurement": "Trembling (onset)", "setting": "Ercc^−/Δ mouse", "result": 12.7},
      {"measurement": "Wasting (onset)", "setting": "Ercc^−/Δ mouse", "result": 19.7}
    ]},
    {"molecule": "KKKKKKKKGGTALDASALQTE (SEQ ID NO:7) [8K-mNBD, reference compound]", "values": [
      {"measurement": "Degree of osteoporotic changes (micro-CT of vertebra)", "setting": "Ercc1^−/Δ mice [1]; at 17 weeks of age, compared with 8K-NBD-treated sibling and wild-type littermate", "result": "appears greatest"},
      {"measurement": "Hepatocellular senescence, p16 protein staining pattern", "setting": "Ercc1^−/Δ mice [1]; at the age of 18 weeks", "result": "more closely resembles the pattern in senescent wild-type hepatocytes"}
    ]},
    {"molecule": "COc1c(Cl)cc2c([nH]c3cnccc32)c1NC(=O)c1cccnc1C", "note": "[ML120B, (N-6-chloro-7-methoxy-9H-β-carbolin-8-yl)-2-methylnicotinamide]", "values": [
      {"measurement": "IC50", "setting": "NF-κB activation", "result": 0.06, "unit": "µM"}
    ]}
  ]
}
